Source: US12428456B2, “Peptide directed protein knockdown” (University of British Columbia, priority 2012, dated 2025)
Like-named read-outs stand apart in the source and are kept apart here.

Assays:
[1] = tested on: cortical neurons; type: cell-based; conditions: H2O2 300 μM 30 min
Protocol: Primary culture of cortical neurons. Dissociated cultures of rat cortical neurons were prepared from Sprague Dawley rat embryos collected from euthanized mothers 18 days after fertilization as previously described^35. Briefly, hippocampi and cerebral cortices were extracted from embryos and incubated for 30 min in 0.25% trypsin-EDTA. Digested tissues were dissociated by trituration and plated on poly-D-lysine-coated (Sigma, P7280) plates. Plating medium consisted of Neurobasal Media (Invitrogen, 21103-049) supplemented with B27 (Invitrogen, 17504044), glutamic acid (Sigma, G8415) and GlutaMax (Invitrogen, 35050-061). After 2 days, 2/3 of the media was replaced with fresh Neurobasal feeding media consisting of Neurobasal Media, B27 and GlutaMax. Cultures were maintained at 37° C. in a humidified 5% CO2 atmosphere. […]
Assessment of neuronal death. Cytotoxic damage of primary neuron cultures was assessed by measuring LDH released into culture media as previously described^38. […] Peptide toxicity was assessed by treating neurons with 25 μM synthetic peptide or 200 μM recombinant peptide for 24 hrs. […] The amount of LDH in the medium was determined using a LDH cytotoxicity detection kit (Sigma, TOX7) according to the manufacturer's instructions. The absorbance at 490 nm was determined using a microplate reader (μQuant, Bio-TEK instruments), which was adjusted by background reading deduction.

[2] = target: T1, DAPK1 (Rattus norvegicus, UniProt F1LNN8); assay: Knockdown of native DAPK1 in cultured cortical neurons, NMDA stimulation (immunoblot); type: cell-based; conditions: synthetic peptide 25 μM, prior to and during NMDA
T1 construct: decreased the level of endogenous DAPK1 in cultured cortical neurons following NMDA treatment; endogenous in cells; host or cells: primary rat cortical neurons (E18, 14-18 DIV)
Protocol: Cell culture, transfection and treatments. HEK293 cells and COS7 cells were cultured in DMEM (Sigma, D6429-24X500ML) supplemented with 10% Fetal Bovine Serum (Invitrogen, 12483020). Cells were grown to 80% confluence in 6-well plates before transiently transfected with Lipofectamine 2000 (Invitrogen, 11668019), as according to the manufacturer's protocols. Cells were transfected for either 24 or 48 hours at 37° C. before harvesting for biochemical analyses. For experiments involving TAT or His-TAT peptides, unless otherwise specified, peptides were added 1 hour prior to NMDA insult.
Primary culture of cortical neurons. Dissociated cultures of rat cortical neurons were prepared from Sprague Dawley rat embryos collected from euthanized mothers 18 days after fertilization as previously described^35. Briefly, hippocampi and cerebral cortices were extracted from embryos and incubated for 30 min in 0.25% trypsin-EDTA. Digested tissues were dissociated by trituration and plated on poly-D-lysine-coated (Sigma, P7280) plates. Plating medium consisted of Neurobasal Media (Invitrogen, 21103-049) supplemented with B27 (Invitrogen, 17504044), glutamic acid (Sigma, G8415) and GlutaMax (Invitrogen, 35050-061). After 2 days, 2/3 of the media was replaced with fresh Neurobasal feeding media consisting of Neurobasal Media, B27 and GlutaMax. Cultures were maintained at 37° C. in a humidified 5% CO2 atmosphere. Mature neurons (14-18 days in vitro (DIV)) were used for experiments.
(§1) Immunoblotting. Immunoblotting assays were carried out as previously described^36. Briefly, proteins were extracted from neurons using a lysis buffer composed of 150 mM NaCl, 50 mM Tris, pH 7.4, 0.1% SDS, 1% NP-40, 0.5% sodium deoxycholate, 1 mM EDTA, 1 mM Na3VO4, and proteinase inhibitor mixture (Thermo Fisher, PI78442). Samples were separated on 10% SDS-PAGE gels, transferred to polyvinylidene difluoride (PVDF) membrane, and immunoblotted with respective antibodies. Blots were enhanced with chemiluminescence detection reagent kit (Fisher, 32106) and visualized with Bio-Rad imager and Quantity One software. Signal intensities from each band was quantified with Bio-Rad Image Lab software, and the bands were analyzed relative to their controls from the same membrane and experiment.
Cellular fractionation. Cytoplasm/nuclei fractionation was performed on cultured cortical neurons (6.0*10^6 cells/100 mm dish). Briefly, cells were washed with ice cold PBS and rocked in lysis buffer for 30 min. Cells were then collected and centrifuged to obtain a rough cytoplasmic and nuclear fraction. Supernatant was collected and further centrifuged to obtain purified cytosolic fraction. The original pellet was washed and vortexed to obtain a nuclear lysis. Mitochondrial fractionation was performed as described in the Pierce Mitochondria Isolation Kit for Cultured Cells (Thermo Scientific, 89874) user guide. Purity was assessed by immunoblotting for the presence of LB1 (nucleus only), HSP90 (cytosol only) and VDAC1 (mitochondria only).

[3] = target: T1, DAPK1; assay: DAPK1 knockdown in brain, rat MCAO focal ischemia model (immunoblot, immunohistochemistry); type: in vivo; conditions: 10 mg/kg i.v., ischemic vs contralateral side; listed as TATNR2B
Protocol: as §1
(§2) Middle cerebral arterial occlusion (MCAO). All animal experiments were performed according to protocols approved by the University of British Columbia Committee on Animal Care. Adult naïve male Sprague-Dawley rats (300-350 g, Charles River) were group housed (3-4 animals/cage) in 12 hr:12 hr light-dark cycles and had free access to rat pellet chow and water prior to surgery. Reversible MCAO with suture-insertion method was performed as described previously^37. Briefly, a nylon suture with a blunted tip was entered through the right external carotid artery of anesthetized rats and advanced to the right internal carotid artery until the right MCA was occluded. After 60 min of occlusion, the rat was reanesthetized to facilitate the removal of the occlusion. Body temperature was maintained at between 36.5 and 37.5° C. throughout the surgical procedure with a heating pad. Peptides (10 mg/kg) or vehicle control (saline; 1 ml/kg) was injected via the jugular vein. Rats were then sewn up and allowed to recover until tissue collection.
Immunohistochemistry. Rats were anesthetized and perfused with double-filtered saline and 4% paraformaldehyde (PFA) in PBS. Brains were collected, immersed in 4% PFA before subjected to cryoprotection by 30% sucrose/PBS. After the brains had sunk, they were flash frozen with dry ice before overnight freezing in −80° C. They were then sliced at […] with a cryostat, and stored in 0.1 μM PB (sodium phosphate dibasic and sodium phosphate monobasic). Prior to staining, slices were washed 3×10 min with 0.1 μM PB, permeablized and blocked in 0.1 μM PB with 1% BSA and 0.2% Triton X-100 for 30 min, and stained with anti-DAPK1 (1:100) at 4° C. for 3 days. They were then washed and stained with Alexa 488 (1:1000) at 4° C. overnight before washing and mounting.

[4] = tested on: rat middle cerebral artery occlusion focal ischemia model; assay: Ischemic brain damage, rat MCAO focal ischemia model (H&E staining); type: in vivo; conditions: 10 mg/kg i.v., 60 min MCAO
Protocol: as §2
Hematoxylin & Eosin (H&E) staining. Slices were mounted and dried on glass slides prior staining. Slides were immersed in Hematoxylin solution (Sigma, MHS1-100ML) for 15 min away from light, followed by 5 min blueing under tap water. Slides were then counterstained with 0.5% Eosin Y (Sigma, E4009-5G) and dipped in ddH2O until the eosin stopped streaking. […]

T1 sequence (F1LNN8 1-1430): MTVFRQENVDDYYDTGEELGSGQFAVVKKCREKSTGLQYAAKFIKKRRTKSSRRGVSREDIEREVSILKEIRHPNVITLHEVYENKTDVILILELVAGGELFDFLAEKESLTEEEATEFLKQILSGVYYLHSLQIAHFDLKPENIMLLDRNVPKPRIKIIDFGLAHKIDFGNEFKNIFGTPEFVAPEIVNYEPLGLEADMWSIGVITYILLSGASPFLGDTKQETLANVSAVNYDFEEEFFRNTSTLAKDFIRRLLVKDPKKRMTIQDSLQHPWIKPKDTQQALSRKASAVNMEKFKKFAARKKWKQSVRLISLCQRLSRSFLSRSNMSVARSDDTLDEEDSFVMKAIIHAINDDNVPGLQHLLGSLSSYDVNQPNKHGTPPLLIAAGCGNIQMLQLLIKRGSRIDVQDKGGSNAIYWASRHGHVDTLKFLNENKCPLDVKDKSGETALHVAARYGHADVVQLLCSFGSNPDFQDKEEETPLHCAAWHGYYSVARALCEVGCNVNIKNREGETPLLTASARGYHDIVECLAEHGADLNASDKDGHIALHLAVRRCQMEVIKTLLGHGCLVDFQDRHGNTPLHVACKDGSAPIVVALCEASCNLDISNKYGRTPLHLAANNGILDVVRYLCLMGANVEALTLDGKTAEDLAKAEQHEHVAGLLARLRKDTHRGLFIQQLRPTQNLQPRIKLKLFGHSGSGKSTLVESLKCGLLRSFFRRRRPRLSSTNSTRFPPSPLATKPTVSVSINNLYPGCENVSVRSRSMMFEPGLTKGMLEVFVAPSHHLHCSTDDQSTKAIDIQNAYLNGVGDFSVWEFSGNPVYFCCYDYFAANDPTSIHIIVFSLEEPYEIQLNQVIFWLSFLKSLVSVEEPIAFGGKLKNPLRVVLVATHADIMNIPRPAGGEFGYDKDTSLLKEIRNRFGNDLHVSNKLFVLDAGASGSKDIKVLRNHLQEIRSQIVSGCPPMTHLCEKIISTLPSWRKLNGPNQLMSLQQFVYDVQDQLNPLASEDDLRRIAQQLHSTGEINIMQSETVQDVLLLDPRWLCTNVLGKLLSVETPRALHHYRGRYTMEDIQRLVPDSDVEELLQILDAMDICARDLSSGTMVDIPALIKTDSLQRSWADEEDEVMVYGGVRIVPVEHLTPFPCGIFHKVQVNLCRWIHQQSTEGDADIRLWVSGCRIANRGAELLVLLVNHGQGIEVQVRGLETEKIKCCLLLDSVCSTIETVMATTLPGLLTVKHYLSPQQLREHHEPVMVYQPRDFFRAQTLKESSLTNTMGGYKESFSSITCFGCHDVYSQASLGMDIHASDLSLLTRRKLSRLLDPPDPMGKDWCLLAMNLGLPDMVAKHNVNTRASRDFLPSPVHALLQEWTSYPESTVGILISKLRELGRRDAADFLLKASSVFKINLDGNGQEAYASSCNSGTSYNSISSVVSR

In the case of `N[C@H](CCCP(=O)(O)O)C(=O)O` [APV, (2R)-amino-5-phosphonopentanoic acid], the “neuronal death (LDH) normalized to naïve non-treated control (set as 1)” value ([1]; 50 μM, 12 hours after treatment) is reported as 2.16±13.8.
With “YGRKKRRQRRRKKNRNKLRRQHSY [TAT-NR2B, CTS-lacking control peptide, reference compound]” the “effect on DAPK1 level after NMDA treatment” value [2] was “did not affect DAPK1 levels”, the “effect on DAPK1 levels in brain tissues (immunoblot)” value [3] was “no obvious change” and the “ischemic damage / infarct areas (H&E staining)” value [4] was “partially decreased ischemic damage”.
For catalase, the “neuronal death (LDH) normalized to naïve non-treated control (set as 1)” value ([1]; catalase added, 12 hours) was 1.17±1.76.
